From PMC7413254 (Nature Communications, 2020)
Like-named read-outs stand apart in the source and are kept apart here.

Columns and labels:
PfNT1 = molecular target: T1, PfNT1 (Plasmodium falciparum, UniProt Q8IDM6); test: cell-based; assay type: cell-based; conditions: for activity at 5000 µM: total [3H]CQ transport
T1 construct: expressed in transfected cells; host or cells: Xenopus laevis oocytes (stage V-VI), cRNA-injected
Procedure, shortened: (§1)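 Oocytes (ten per treatment, ≥4 independent frogs/days) were preloaded by injecting VF-6 in 25 nL ND96 at pH 5.0, 5.5, 6.0 or 7.0, or Na^+-free choline buffer, then uptake run 1.5 h, 27.5 °C, ND96 pH 5.5 by default. Internal concentrations assumed ~400 nL oocyte volume.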

PfCRT^3D7 [1] = molecular target: T2, PfCRT^3D7 (Plasmodium falciparum, UniProt Q8IBZ9); test: cell-based; assay type: cell-based
T2 sequence (Q8IBZ9 59-398): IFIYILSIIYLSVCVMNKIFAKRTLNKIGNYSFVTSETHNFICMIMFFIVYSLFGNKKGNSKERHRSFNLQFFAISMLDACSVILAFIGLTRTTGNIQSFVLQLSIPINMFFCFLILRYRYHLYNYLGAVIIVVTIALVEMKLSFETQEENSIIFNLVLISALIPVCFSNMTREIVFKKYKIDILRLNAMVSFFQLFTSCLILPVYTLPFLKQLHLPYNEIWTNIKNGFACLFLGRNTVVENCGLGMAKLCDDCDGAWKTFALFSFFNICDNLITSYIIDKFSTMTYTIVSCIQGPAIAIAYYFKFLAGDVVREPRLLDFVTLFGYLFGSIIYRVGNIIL
Procedure, shortened: as §1

PfCRT^Ecu1110 [2] = molecular target: T3, PfCRT^Ecu1110 (Plasmodium falciparum, UniProt Q9N623, A220S/I356L/K76T/N326D); test: cell-based; assay type: cell-based; conditions: […]
T3 sequence (Q9N623 whole entry A220S/I356L/K76T/N326D): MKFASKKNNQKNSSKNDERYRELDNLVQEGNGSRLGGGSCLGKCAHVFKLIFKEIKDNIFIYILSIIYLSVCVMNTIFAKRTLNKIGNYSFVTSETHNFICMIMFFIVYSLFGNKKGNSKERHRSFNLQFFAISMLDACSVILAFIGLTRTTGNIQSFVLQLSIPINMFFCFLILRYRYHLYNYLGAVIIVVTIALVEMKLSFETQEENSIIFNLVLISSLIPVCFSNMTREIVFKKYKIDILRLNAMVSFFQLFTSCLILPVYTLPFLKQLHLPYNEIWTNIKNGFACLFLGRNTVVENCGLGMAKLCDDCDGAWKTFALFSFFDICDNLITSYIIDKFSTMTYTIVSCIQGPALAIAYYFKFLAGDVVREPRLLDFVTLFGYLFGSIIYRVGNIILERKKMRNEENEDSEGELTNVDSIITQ
Procedure, shortened: as §1

PfCRT^Dd2 [3] = molecular target: T4, PfCRT^Dd2 (Plasmodium falciparum, UniProt Q9N623, A220S/I356T/K76T/M74I/N326S/N75E/Q271E/R371I); test: cell-based; assay type: cell-based; conditions: […]; for activity at 45000 µM: [test solute]i = 45 mM (30 mM for some solutes due to solubility)
T4 sequence (Q9N623 whole entry A220S/I356T/K76T/M74I/N326S/N75E/Q271E/R371I): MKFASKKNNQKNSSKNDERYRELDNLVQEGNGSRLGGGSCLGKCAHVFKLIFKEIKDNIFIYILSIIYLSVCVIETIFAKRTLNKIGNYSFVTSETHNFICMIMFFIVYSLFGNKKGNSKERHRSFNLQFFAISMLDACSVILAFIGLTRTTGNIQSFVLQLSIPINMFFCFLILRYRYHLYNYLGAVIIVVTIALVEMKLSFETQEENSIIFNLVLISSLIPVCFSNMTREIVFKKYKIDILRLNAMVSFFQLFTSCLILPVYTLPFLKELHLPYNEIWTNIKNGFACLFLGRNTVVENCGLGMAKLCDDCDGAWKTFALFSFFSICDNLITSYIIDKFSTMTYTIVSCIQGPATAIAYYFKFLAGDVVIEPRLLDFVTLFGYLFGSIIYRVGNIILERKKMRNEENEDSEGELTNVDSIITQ
Procedure, shortened: as §1

PfCRT [4] = test: Influx of VF-6 via PfCRT into the oocyte, solutes tested as potential co-substrates; assay type: cell-based, Plasmodium falciparum; set-up: key: X: Compounds that have been tested as potential co-substrates but are not required for influx of VF-6 via PfCRT into the oocyte; conditions: X marks the solute
PfCRT^Ecu1110 [5] = molecular target: T3, PfCRT^Ecu1110; test: [3H]CQ uptake into Xenopus oocytes, cis-inhibition by unlabelled solute; assay type: cell-based
Procedure, shortened: (§2)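 Each treatment used ten oocytes, repeated in at least four experiments on different days with oocytes from different frogs. Conditions: ND96 pH 5.5, 27.5 °C, 1.5 h; read-out by scintillation counting.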

PfCRT^Dd2 [6] = molecular target: T4, PfCRT^Dd2; test: as above; assay type: cell-based
Procedure, shortened: as §2

non-expressing oocytes [7] = test: cells; assay type: cell-based, Xenopus laevis; conditions: Xenopus laevis, Oocyte
Procedure, shortened: as §2

PfCRT^3D7 [8] = molecular target: T2, PfCRT^3D7; test: cell-based; assay type: cell-based; conditions: total [3H]CQ transport; for inhibition at 500 µM: [test solute] = 0.5 mM; for inhibition at 1000 µM: [test solute] = 1 mM; for inhibition at 2000 µM: [test solute] = 2 mM
Procedure, shortened: as §2

PfCRT [9] = test: Test of solutes as potential co-substrates for influx of VF-6 via PfCRT into the oocyte; assay type: cell-based, Plasmodium falciparum; set-up: key: X: Compounds that have been tested as potential co-substrates but are not required for influx of VF-6 via PfCRT into the oocyte; conditions: X = tested
non-expressing oocytes [10] = assay type: cell-based, Xenopus laevis; conditions: total [3H]CQ transport; for Uptake of [3H]CQ (% non-expressing oocyte control), trans-stimulation: non-expressing oocytes, normalised to the oocyte type control; for Uptake of [3H]CQ (% PfCRTDd2 control), trans-stimulation, non-expressing oocytes: mean ± SEM, SEM
Procedure, shortened: as §1

[11] = read-out: PfCRT-mediated [3H]CQ transport, cis-inhibition (% PfCRTEcu1110 control)
[12] = read-out: Uptake of [3H]CQ (% PfCRTDd2 control), cis-inhibition, PfCRTEcu1110, SEM
[13] = read-out: Uptake of [3H]CQ (% PfCRTEcu1110 control), cis-inhibition
[14] = read-out: [3H]CQ transport (% PfCRTEcu1110 control), cis-inhibition, PfCRTEcu1110, SEM
[15] = read-out: PfCRT-mediated [3H]CQ transport, cis-inhibition (% PfCRTDd2 control)
[16] = read-out: Uptake of [3H]CQ (% PfCRTDd2 control), cis-inhibition, PfCRTDd2, SEM
[17] = read-out: Uptake of [3H]CQ (% PfCRTDd2 control), cis-inhibition, non-expressing oocytes, SEM
[18] = read-out: Uptake of [3H]CQ (% non-expressing oocyte control), cis-inhibition
[19] = PfCRT3D7 oocytes, normalised to the oocyte type control, read-out: Uptake of [3H]CQ (% PfCRT3D7 control), cis-inhibition
[20] = mean ± SEM, SEM, read-out: Uptake of [3H]CQ (% PfCRTDd2 control), cis-inhibition, PfCRT3D7

T1 sequence (Q8IDM6 whole entry): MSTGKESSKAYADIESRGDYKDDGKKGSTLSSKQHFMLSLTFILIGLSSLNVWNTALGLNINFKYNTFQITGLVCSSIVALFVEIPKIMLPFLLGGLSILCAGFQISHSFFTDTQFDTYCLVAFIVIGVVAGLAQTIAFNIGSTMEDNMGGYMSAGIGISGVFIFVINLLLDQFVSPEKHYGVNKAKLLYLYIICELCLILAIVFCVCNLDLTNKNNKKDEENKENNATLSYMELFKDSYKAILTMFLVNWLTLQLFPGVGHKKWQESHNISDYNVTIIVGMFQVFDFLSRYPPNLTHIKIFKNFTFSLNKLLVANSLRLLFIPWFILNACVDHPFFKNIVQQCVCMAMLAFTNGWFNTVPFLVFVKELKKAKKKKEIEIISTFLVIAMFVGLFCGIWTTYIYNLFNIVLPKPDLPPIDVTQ

## NCCCC[C@H](N)C(=O)O [L-lysine]
PfNT1; PfNT1 oocytes, [test solute]i = 5 mM, normalised to the oocyte type control, read-out: Uptake of [3H]CQ (% PfNT1 control), trans-stimulation
  activity at 5000 µM: 100 ± 3.6%
PfNT1; SEM, read-out: Uptake of [3H]CQ (% PfCRTDd2 control), trans-stimulation, PfNT1
  activity at 45000 µM: 2.8 ± 0.05%
PfNT1; read-out: Uptake of [3H]CQ (% PfNT1 control), trans-stimulation
  activity at 45000 µM: 99 ± 3.7%
PfNT1; [test solute]i = 5 mM (intracellular), mean ± SEM, SEM, read-out: Uptake of [3H]CQ (% PfCRTDd2 control), trans-stimulation, PfNT1
  activity at 5000 µM: 2.1 ± 0.01%
PfCRT^3D7 [1]; PfCRT3D7 oocytes, [test solute]i = 5 mM, total [3H]CQ transport, normalised to the oocyte type control, read-out: Uptake of [3H]CQ (% PfCRT3D7 control), trans-stimulation
  activity at 5000 µM: 99 ± 3.7%
PfCRT^3D7 [1]; SEM
  [3H]CQ transport (% PfCRT3D7 control), trans-stimulation, PfCRT3D7: 0.3 ± 0.02 % PfCRT3D7 control
PfCRT^3D7 [1]; [test solute]i = 5 mM (intracellular), PfCRT3D7 oocytes, normalised to oocyte type control, read-out: PfCRT-mediated [3H]CQ transport, trans-stimulation (% PfCRT3D7 control)
  activity at 5000 µM: 97 ± 2%
PfCRT^3D7 [1]; SEM, read-out: Uptake of [3H]CQ (% PfCRTDd2 control), trans-stimulation, PfCRT3D7
  activity at 45000 µM: 3.3 ± 0.06%
PfCRT^3D7 [1]; read-out: PfCRT-mediated [3H]CQ transport, trans-stimulation (% PfCRT3D7 control)
  activity at 45000 µM: 96 ± 1.9%
PfCRT^3D7 [1]; read-out: Uptake of [3H]CQ (% PfCRT3D7 control), trans-stimulation
  activity at 45000 µM: 98 ± 2.4%
PfCRT^3D7 [1]; total [3H]CQ transport, [test solute]i = 5 mM (intracellular), mean ± SEM, SEM, read-out: Uptake of [3H]CQ (% PfCRTDd2 control), trans-stimulation, PfCRT3D7
  activity at 5000 µM: 3.3 ± 0.05%
PfCRT^Ecu1110 [2]; pH 5.5, read-out: PfCRT-mediated [3H]CQ transport, trans-stimulation (% PfCRTEcu1110 control), [test solute]i = 5 mM (intracellular), PfCRTEcu1110 oocytes, normalised to oocyte type control
  activity at 5000 µM: 95 ± 3.8%
PfCRT^Ecu1110 [2]; pH 5.5, read-out: Uptake of [3H]CQ (% PfCRTEcu1110 control), trans-stimulation, PfCRTEcu1110 oocytes, [test solute]i = 5 mM, total [3H]CQ transport, normalised to the oocyte type control
  activity at 5000 µM: 97 ± 4.4%
PfCRT^Ecu1110 [2]; pH 5.5, read-out: Uptake of [3H]CQ (% PfCRTEcu1110 control), trans-stimulation, PfCRTEcu1110 oocytes, [test solute]i = 45 mM (30 mM for some solutes due to solubility), total [3H]CQ transport, normalised to the oocyte type control
  activity at 45000 µM: 99 ± 4.2%
PfCRT^Ecu1110 [2]; read-out: Uptake of [3H]CQ (% PfCRTDd2 control), trans-stimulation, PfCRTEcu1110, total [3H]CQ transport, [test solute]i = 5 mM (intracellular), mean ± SEM, SEM
  activity at 5000 µM: 35 ± 1.8%
PfCRT^Ecu1110 [2]; read-out: Uptake of [3H]CQ (% PfCRTDd2 control), trans-stimulation, PfCRTEcu1110, total [3H]CQ transport, [test solute]i = 45 mM (intracellular; 30 mM for some solutes due to solubility), mean ± SEM, SEM
  activity at 45000 µM: 35 ± 1.6%
PfCRT^Dd2 [3]; pH 5.5, read-out: PfCRT-mediated [3H]CQ transport, trans-stimulation (% PfCRTDd2 control), [test solute]i = 5 mM (intracellular), PfCRTDd2 oocytes, normalised to oocyte type control
  activity at 5000 µM: 97 ± 3.4%
PfCRT^Dd2 [3]; pH 5.5, read-out: Uptake of [3H]CQ (% PfCRTDd2 control), trans-stimulation, PfCRTDd2, total [3H]CQ transport, [test solute]i = 5 mM (intracellular), mean ± SEM, SEM
  activity at 5000 µM: 99 ± 2.4%
PfCRT^Dd2 [3]; pH 5.5, read-out: Uptake of [3H]CQ (% PfCRTDd2 control), trans-stimulation, PfCRTDd2 oocytes, [test solute]i = 5 mM, total [3H]CQ transport, normalised to the oocyte type control
  activity at 5000 µM: 99 ± 2.4%
PfCRT^Dd2 [3]; pH 5.5, read-out: Uptake of [3H]CQ (% PfCRTDd2 control), trans-stimulation, PfCRTDd2 oocytes, total [3H]CQ transport, normalised to the oocyte type control
  activity at 45000 µM: 97 ± 3.2%
PfCRT^Dd2 [3]; pH 5.5, read-out: [3H]CQ transport (% PfCRTDd2 control), trans-stimulation, PfCRTDd2, trans-stimulation, [test solute]i = 5 mM (injected), PfCRT-mediated component (background subtracted), mean ± SEM, SEM
  activity at 5000 µM: 97 ± 3.4%
PfCRT^Dd2 [3]; pH 5.5, read-out: [3H]CQ transport (% PfCRTDd2 control), trans-stimulation, PfCRTDd2, trans-stimulation, PfCRT-mediated component (background subtracted), mean ± SEM, SEM
  activity at 45000 µM: 95 ± 4.5%
PfCRT [4]
  Compounds that have been tested as potential co-substrates but are not required for influx of VF-6 via PfCRT into the oocyte: X
PfCRT^Ecu1110 [5]; [11]
  inhibition at 500 µM: 93 ± 6.7%
  inhibition at 1000 µM: 97 ± 5.2%
  inhibition at 2000 µM: 96 ± 4.1%
PfCRT^Ecu1110 [5]; [12]
  inhibition at 500 µM: 31 ± 1.9%
  inhibition at 1000 µM: 32 ± 1.8%
  inhibition at 2000 µM: 32 ± 1%
PfCRT^Ecu1110 [5]; [13]
  inhibition at 500 µM: 95 ± 3.6%
  inhibition at 1000 µM: 99 ± 4.6%
  inhibition at 2000 µM: 98 ± 3.2%
PfCRT^Ecu1110 [5]; [14]
  inhibition at 500 µM: 28 ± 1.6%
  inhibition at 1000 µM: 29 ± 0.2%
  inhibition at 2000 µM: 29 ± 0.2%
PfCRT^Dd2 [6]; [15]
  inhibition at 500 µM: 93 ± 5.2%
  inhibition at 1000 µM: 99 ± 3.6%
  inhibition at 2000 µM: 95 ± 4.1%
PfCRT^Dd2 [6]; [16]
  inhibition at 500 µM: 96 ± 3.1%
  inhibition at 1000 µM: 100 ± 2.8%
  inhibition at 2000 µM: 97 ± 3.2%
non-expressing oocytes [7]; [17]
  inhibition at 500 µM: 2.9 ± 0.03%
  inhibition at 1000 µM: 3.3 ± 0.07%
  inhibition at 2000 µM: 3.3 ± 0.03%
non-expressing oocytes [7]; [18]
  inhibition at 500 µM: 101 ± 6.3%
  inhibition at 1000 µM: 101 ± 3.6%
  inhibition at 2000 µM: 100 ± 3.6%
PfCRT^3D7 [8]; [19]
  inhibition at 500 µM: 100 ± 4.8%
  inhibition at 1000 µM: 101 ± 3.7%
  inhibition at 2000 µM: 100 ± 4.7%
PfCRT^3D7 [8]; [20]
  inhibition at 500 µM: 3.4 ± 0.07%
  inhibition at 1000 µM: 3.3 ± 0.03%
  inhibition at 2000 µM: 3.1 ± 0.07%
PfCRT [9]
  Tested as potential co-substrate but not required for influx of VF-6 via PfCRT into the oocyte: X
non-expressing oocytes [10]; [test solute]i = 5 mM
  Uptake of [3H]CQ (% non-expressing oocyte control), trans-stimulation: 101 ± 3.2 % non-expressing oocyte control
non-expressing oocytes [10]; [test solute]i = 45 mM (30 mM for some solutes due to solubility)
  Uptake of [3H]CQ (% non-expressing oocyte control), trans-stimulation: 99 ± 3.2 % non-expressing oocyte control
non-expressing oocytes [10]; [test solute]i = 5 mM (intracellular)
  Uptake of [3H]CQ (% PfCRTDd2 control), trans-stimulation, non-expressing oocytes: 2.3 ± 0.03 % PfCRTDd2 control
non-expressing oocytes [10]; [test solute]i = 45 mM (intracellular; 30 mM for some solutes due to solubility)
  Uptake of [3H]CQ (% PfCRTDd2 control), trans-stimulation, non-expressing oocytes: 3.3 ± 0.03 % PfCRTDd2 control
